Source: patent US20060069132A1, “Azolecarboxamide herbicides” (priority 2004, published 2006)

Key:
barnyardgrass [1] = assay: Test B pre-/postemergence herbicide test; assay type: in vivo, Echinochloa crus-galli; conditions: for Barnyardgrass plant response rating (0 to 100 scale) / Plant response rating, Barnyardgrass: 0 = no effect, 100 = complete control, preemergence; for Plant response rating, Barnyardgrass / Barnyardgrass plant response rating: visual rating; for Barnyardgrass plant response rating: postemergence, scale 0 (no effect) to 100 (complete control)
Method in brief: (§1)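 Response was scored visually 13 to 15 days after treatment against untreated greenhouse controls, 0 meaning no effect and 100 complete control. Formulations (solvent mixture plus surfactant) went onto soil after planting, onto foliage of 1- to 4-leaf plants, and onto 2-leaf plants in a flooded paddy set including rice and barnyardgrass.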

Surinam grass = assay: Test B pre-/postemergence herbicide test; assay type: in vivo, Urochloa decumbens; conditions: for Surinam Grass plant response rating (0 to 100 scale) / Plant response rating, Surinam Grass: 0 = no effect, 100 = complete control, preemergence; for Surinam Grass plant response rating: postemergence
Method in brief: (§2)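 Evaluation is visual, comparing treated with control plants on a scale where 0 means no effect and 100 means full control. Treatments were preemergence, or postemergence on seedlings 2–18 cm tall, and held 13–15 days in the greenhouse.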

cocklebur = assay: Test B pre-/postemergence herbicide test; assay type: in vivo, Xanthium strumarium; conditions: for Cocklebur plant response rating (0 to 100 scale) / Plant response rating, Cocklebur: 0 = no effect, 100 = complete control, preemergence; for Plant response rating, Cocklebur / Cocklebur plant response rating: visual rating; for Cocklebur plant response rating: postemergence, scale 0 (no effect) to 100 (complete control)
Method in brief: as §1

corn = assay: Test B pre-/postemergence herbicide test; assay type: in vivo, Zea mays; conditions: for Corn plant response rating (0 to 100 scale) / Plant response rating, Corn: 0 = no effect, 100 = complete control, preemergence; for Corn plant response rating: postemergence
Method in brief: as §2

large crabgrass = assay: Test B pre-/postemergence herbicide test; assay type: in vivo, Digitaria sanguinalis; conditions: for Crabgrass, Large plant response rating: postemergence
Method in brief: as §2

giant foxtail = assay: Test B pre-/postemergence herbicide test; assay type: in vivo, Setaria faberi; conditions: for Foxtail, Giant plant response rating (0 to 100 scale) / Plant response rating, Foxtail, Giant: 0 = no effect, 100 = complete control, preemergence; for Foxtail, Giant plant response rating: postemergence
Method in brief: as §2

lambsquarters = assay: Test B pre-/postemergence herbicide test; assay type: in vivo, Chenopodium album; conditions: for Lambsquarters plant response rating (0 to 100 scale): 0 = no effect, 100 = complete control, preemergence; for Lambsquarters plant response rating: postemergence
Method in brief: as §2

morningglory = assay: Test B pre-/postemergence herbicide test; assay type: in vivo, Ipomoea coccinea; conditions: for Morningglory plant response rating (0 to 100 scale) / Plant response rating, Morningglory: 0 = no effect, 100 = complete control, preemergence; for Morningglory plant response rating: postemergence
Method in brief: as §1

pigweed = assay: Test B pre-/postemergence herbicide test; assay type: in vivo, Amaranthus retroflexus; conditions: for Pigweed plant response rating: postemergence
Method in brief: as §2

rice [2] = assay: Test B pre-/postemergence herbicide test; assay type: in vivo, Oryza sativa; conditions: 0 = no effect, 100 = complete control, preemergence; for Rice plant response rating (0 to 100 scale): 125 g ai/ha; for Plant response rating, Rice: 500 g ai/ha, visual rating
Method in brief: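 Plants compared with untreated controls 13–15 days post-treatment and given a visual 0–100 injury score. Applications: preemergence to seeds; postemergence at 1- to 4-leaf (2–18 cm); paddy species flooded, 2-leaf stage. Vehicle non-phytotoxic, surfactant included.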

velvetleaf = assay: Test B pre-/postemergence herbicide test; assay type: in vivo, Abutilon theophrasti; conditions: for Velvetleaf plant response rating (0 to 100 scale) / Plant response rating, Velvetleaf: 0 = no effect, 100 = complete control, preemergence; for Velvetleaf plant response rating: postemergence
Method in brief: as §2

blackgrass = assay: Test B postemergence herbicide test; assay type: in vivo, Alopecurus myosuroides; conditions: postemergence, visual rating, scale 0 (no effect) to 100 (complete control)
Method in brief: (§3)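 Visual control ratings, 0–100 versus untreated controls, taken after 13 to 15 days in the greenhouse. Blackgrass received a postemergence spray at the 1- to 4-leaf stage (2–18 cm); ducksalad, umbrella sedge and barnyardgrass were flooded-paddy treated at 2 leaves.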

wheat = assay: Test B postemergence herbicide test; assay type: in vivo, Triticum aestivum; set-up: key to Wheat plant response rating: 0 = no effect, 100 = complete control; conditions: postemergence
Method in brief: (§4)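 After treating 2-leaf paddy plants or 2–18 cm postemergence plants (1 to 4 leaves) with formulated chemical, researchers kept them in a greenhouse for 13–15 days. Effects were judged visually versus controls: 0 indicates none, 100 total control.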

wild oat = assay: Test B postemergence herbicide test; assay type: in vivo, Avena fatua; conditions: postemergence
Method in brief: as §4

rice [3] = assay: Test B flooded paddy test; assay type: in vivo, Oryza sativa; conditions: 1000 g ai/ha, scale 0 to 100 (0 no effect, 100 complete control)
Method in brief: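 Each value is a visual 0–100 response rating taken against controls 13 to 15 days after treatment in the greenhouse. Plants received formulated chemical postemergence at the 1- to 4-leaf stage or, in flooded paddy, at the 2-leaf stage.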

[4] = system: small flower umbrella sedge; assay: Test B flooded paddy test; assay type: in vivo, Cyperus difformis; conditions: 1000 g ai/ha, scale 0 to 100 (0 no effect, 100 complete control)
Method in brief: as §3

ducksalad = assay: Test B flooded paddy test; assay type: in vivo, Heteranthera limosa; conditions: 1000 g ai/ha, scale 0 to 100 (0 no effect, 100 complete control)
Method in brief: as §3

barnyardgrass [5] = assay: Test B flooded paddy test; assay type: in vivo, Echinochloa crus-galli; conditions: 1000 g ai/ha, scale 0 to 100 (0 no effect, 100 complete control)
Method in brief: as §3

[6] = 125 g ai/ha, visual rating, scale 0 (no effect) to 100 (complete control)
[7] = 500 g ai/ha, scale 0 to 100, 0 is no effect, 100 is complete control
[8] = 125 g ai/ha, 0 = no effect, 100 = complete control, preemergence

CCOC(=O)c1cc(NC(=O)c2cc(C(C)(C)C)nn2CC)c(F)cc1F [Compound 250]
Barnyardgrass plant response rating (0 to 100 scale) (barnyardgrass [1]; 125 g ai/ha): 0
Plant response rating, Barnyardgrass (barnyardgrass [1]; 500 g ai/ha): 10
Barnyardgrass plant response rating (barnyardgrass [1]; 125 g ai/ha): 20
Barnyardgrass plant response rating (barnyardgrass [1]; 500 g ai/ha): 20
Surinam Grass plant response rating (0 to 100 scale) (Surinam grass; 125 g ai/ha): 10
Plant response rating, Surinam Grass (Surinam grass; 500 g ai/ha, visual rating): 30
Surinam Grass plant response rating (Surinam grass; [6]): 10
Surinam Grass plant response rating (Surinam grass; [7]): 20
Cocklebur plant response rating (0 to 100 scale) (cocklebur; 125 g ai/ha): 0
Plant response rating, Cocklebur (cocklebur; 500 g ai/ha): 0
Cocklebur plant response rating (cocklebur; 125 g ai/ha): 30
Cocklebur plant response rating (cocklebur; 500 g ai/ha): 40
Corn plant response rating (0 to 100 scale) (corn; 125 g ai/ha): 0
Plant response rating, Corn (corn; 500 g ai/ha, visual rating): 0
Corn plant response rating (corn; [6]): 20
Corn plant response rating (corn; [7]): 30
Crabgrass, Large plant response rating (0 to 100 scale) (large crabgrass; [8]): 0
Plant response rating, Crabgrass, Large (large crabgrass; 500 g ai/ha, visual rating, 0 = no effect, 100 = complete control, preemergence): 10
Crabgrass, Large plant response rating (large crabgrass; [6]): 20
Crabgrass, Large plant response rating (large crabgrass; [7]): 20
Foxtail, Giant plant response rating (0 to 100 scale) (giant foxtail; 125 g ai/ha): 0
Plant response rating, Foxtail, Giant (giant foxtail; 500 g ai/ha, visual rating): 10
Foxtail, Giant plant response rating (giant foxtail; [6]): 20
Foxtail, Giant plant response rating (giant foxtail; [7]): 30
Lambsquarters plant response rating (0 to 100 scale) (lambsquarters; 125 g ai/ha): 0
Lambsquarters plant response rating (lambsquarters; [6]): 0
Lambsquarters plant response rating (lambsquarters; [7]): 40
Morningglory plant response rating (0 to 100 scale) (morningglory; 125 g ai/ha): 0
Plant response rating, Morningglory (morningglory; 500 g ai/ha, visual rating): 0
Morningglory plant response rating (morningglory; [6]): 20
Morningglory plant response rating (morningglory; [7]): 30
Pigweed plant response rating (0 to 100 scale) (pigweed; [8]): 0
Pigweed plant response rating (pigweed; [6]): 30
Pigweed plant response rating (pigweed; [7]): 70
Rice plant response rating (0 to 100 scale) (rice [2]): 0
Plant response rating, Rice (rice [2]): 10
Velvetleaf plant response rating (0 to 100 scale) (velvetleaf; 125 g ai/ha): 0
Plant response rating, Velvetleaf (velvetleaf; 500 g ai/ha, visual rating): 20
Velvetleaf plant response rating (velvetleaf; [6]): 20
Velvetleaf plant response rating (velvetleaf; [7]): 30
Blackgrass plant response rating (blackgrass; 125 g ai/ha): 10
Blackgrass plant response rating (blackgrass; 500 g ai/ha): 40
Wheat plant response rating (wheat; [6]): 20
Wheat plant response rating (wheat; [7]): 40
Oat, Wild plant response rating (wild oat; [6]): 20
Oat, Wild plant response rating (wild oat; [7]): 40
Rice plant response rating (rice [3]): 50
Sedge, Umbrella plant response rating [4]: 70
Ducksalad plant response rating (ducksalad): 40
Barnyardgrass plant response rating (barnyardgrass [5]): 0

CCN(CC)C(=O)c1cc(NC(=O)c2cc(C(C)(C)C)nn2CC)c(F)cc1F [Compound 253]
Barnyardgrass plant response rating (0 to 100 scale) (barnyardgrass [1]; 125 g ai/ha): 0
Plant response rating, Barnyardgrass (barnyardgrass [1]; 500 g ai/ha): 10
Barnyardgrass plant response rating (barnyardgrass [1]; 125 g ai/ha): 0
Barnyardgrass plant response rating (barnyardgrass [1]; 500 g ai/ha): 10
Surinam Grass plant response rating (0 to 100 scale) (Surinam grass; 125 g ai/ha): 10
Plant response rating, Surinam Grass (Surinam grass; 500 g ai/ha, visual rating): 30
Surinam Grass plant response rating (Surinam grass; [6]): 0
Surinam Grass plant response rating (Surinam grass; [7]): 0
Cocklebur plant response rating (0 to 100 scale) (cocklebur; 125 g ai/ha): 0
Plant response rating, Cocklebur (cocklebur; 500 g ai/ha): 0
Cocklebur plant response rating (cocklebur; 125 g ai/ha): 10
Cocklebur plant response rating (cocklebur; 500 g ai/ha): 20
Corn plant response rating (0 to 100 scale) (corn; 125 g ai/ha): 0
Plant response rating, Corn (corn; 500 g ai/ha, visual rating): 0
Corn plant response rating (corn; [6]): 0
Corn plant response rating (corn; [7]): 0
Crabgrass, Large plant response rating (0 to 100 scale) (large crabgrass; [8]): 20
Crabgrass, Large plant response rating (large crabgrass; [6]): 0
Crabgrass, Large plant response rating (large crabgrass; [7]): 0
Foxtail, Giant plant response rating (0 to 100 scale) (giant foxtail; 125 g ai/ha): 0
Plant response rating, Foxtail, Giant (giant foxtail; 500 g ai/ha, visual rating): 30
Foxtail, Giant plant response rating (giant foxtail; [6]): 0
Foxtail, Giant plant response rating (giant foxtail; [7]): 0
Lambsquarters plant response rating (0 to 100 scale) (lambsquarters; 125 g ai/ha): 0
Lambsquarters plant response rating (lambsquarters; [6]): 20
Lambsquarters plant response rating (lambsquarters; [7]): 30
Morningglory plant response rating (0 to 100 scale) (morningglory; 125 g ai/ha): 0
Plant response rating, Morningglory (morningglory; 500 g ai/ha, visual rating): 0
Morningglory plant response rating (morningglory; [6]): 0
Morningglory plant response rating (morningglory; [7]): 30
Pigweed plant response rating (pigweed; [6]): 20
Pigweed plant response rating (pigweed; [7]): 30
Rice plant response rating (0 to 100 scale) (rice [2]): 0
Plant response rating, Rice (rice [2]): 0
Velvetleaf plant response rating (0 to 100 scale) (velvetleaf; 125 g ai/ha): 0
Plant response rating, Velvetleaf (velvetleaf; 500 g ai/ha, visual rating): 20
Velvetleaf plant response rating (velvetleaf; [6]): 10
Velvetleaf plant response rating (velvetleaf; [7]): 10
Blackgrass plant response rating (blackgrass; 125 g ai/ha): 20
Blackgrass plant response rating (blackgrass; 500 g ai/ha): 20
Wheat plant response rating (wheat; [6]): 20
Wheat plant response rating (wheat; [7]): 30
Oat, Wild plant response rating (wild oat; [6]): 20
Oat, Wild plant response rating (wild oat; [7]): 30
Rice plant response rating (rice [3]): 50
Sedge, Umbrella plant response rating [4]: 20
Ducksalad plant response rating (ducksalad): 60
Barnyardgrass plant response rating (barnyardgrass [5]): 0
